From patent US10588919B2, “Materials and methods for the treatment of vascular disease” (THE UNIVERSITY COURT OF THE UNIVERSITY OF EDINBURGH, priority 2015, dated 2020)

Tests used:
Format in all cases: cell-based, human
[1] = test system: LncRNA 2 (SMILR) expression; assay: MEKK1 and p38 inhibitor studies: LncRNA 2 (SMILR) expression by qRT-PCR in IL1α/PDGF-stimulated HSVSMC; details: 24 h; for LncRNA 2 expression in the presence of IL1 and PDGF: HSVSMC, 60 minute pre-treatment, 10, 15 and 20 μM AZD6244, 5, 10 and 20 uM SB 203580; for induction of SMILR expression in response to PDGF and IL1α: VSMC, 60 min pre-treatment, AZD6244 5, 10 or 15 μM, SB203580
Description: For gene expression analysis, cDNA for mRNA analysis was obtained from total RNA using the Multiscribe Reverse Transcriptase (Life technologies, UK). qRT-PCR was performed using Power SYBR green (life technologies, UK) with custom PCR primers (Eurofins, MWG, Ebersberg, Germany) the specificity of these primers was confirmed by performing a melting curve and running their PCR produce on a gel (Table 1-primer sequences). Ubiquitin C (UBC) was selected as housekeeping gene due to its stability across all groups studied. Fold-changes were calculated using the 2^-ΔΔCt method (Livak and Schmittgen 2001-http://www.ncbi.nlm.nih.gov/pubmed/11846609; analysis of relative gene expression data using real-time quantitative PCR and the 2(-Delta Delta C(T)) method. Methods 2001;25;402-8). For inhibitor studies, […] were plated at 1×10^5 cells in 6 well plates and quiesced for 48 h. […] Cells were then stimulated with either 0.2% media or a combination of IL1α and PDGF for 24 hours for RNA quantification or western blot analysis.

[2] = test system: SMILR (LncRNA 2); assay: dsiRNA-mediated knockdown of SMILR in HSVSMC, qRT-PCR
Description: (§1) For gene expression analysis, cDNA for mRNA analysis was obtained from total RNA using the Multiscribe Reverse Transcriptase (Life technologies, UK). qRT-PCR was performed using Power SYBR green (life technologies, UK) with custom PCR primers (Eurofins, MWG, Ebersberg, Germany) the specificity of these primers was confirmed by performing a melting curve and running their PCR produce on a gel (Table 1—primer sequences). Ubiquitin C (UBC) was selected as housekeeping gene due to its stability across all groups studied. Fold-changes were calculated using the 2^−ΔΔCt method (Livak and Schmittgen 2001—http://www.ncbi.nlm.nih.gov/pubmed/11846609; analysis of relative gene expression data using real-time quantitative PCR and the 2(-Delta Delta C(T)) method. Methods 2001;25;402-8). […] Following the 48 stimulation cells were RNA extracted as described earlier or fixed in 70% ethanol for EdU FACs analysis. EdU incorporation was visualized using Click-iT Alexa Fluor 594 according to the manufacturers protocol (Invitrogen).

[3] = test system: HSVSMC proliferation; assay: EdU incorporation (proliferation) of HSVSMC stimulated with IL1α/PDGF
[4] = test system: interferon pathway (OAS1, IRF7); assay: qRT-PCR of interferon response genes OAS1 and IRF7 after dsiRNA; details: dsiRNA off target effects
Description: For gene expression analysis, cDNA for mRNA analysis was obtained from total RNA using the Multiscribe Reverse Transcriptase (Life technologies, UK). qRT-PCR was performed using Power SYBR green (life technologies, UK) with custom PCR primers (Eurofins, MWG, Ebersberg, Germany) the specificity of these primers was confirmed by performing a melting curve and running their PCR produce on a gel (Table 1—primer sequences). Ubiquitin C (UBC) was selected as housekeeping gene due to its stability across all groups studied. Fold-changes were calculated using the 2^−ΔΔCt method (Livak and Schmittgen 2001—http://www.ncbi.nlm.nih.gov/pubmed/11846609; analysis of relative gene expression data using real-time quantitative PCR and the 2(-Delta Delta C(T)) method. Methods 2001;25;402-8).

[5] = test system: HAS2; assay: HAS2 expression by qRT-PCR in HSVSMC; details: SMILR knockdown
Description: as §1

[6] = test system: HAS2-AS1; assay: HAS2-AS1 expression by qRT-PCR in HSVSMC; details: SMILR knockdown
Description: as §1

[7] = test system: ZHX2; assay: ZHX2 expression by qRT-PCR in HSVSMC; details: SMILR knockdown
Description: as §1

[8] = test system: HAS1; assay: HAS1 expression by qRT-PCR in HSVSMC; details: SMILR knockdown
Description: as §1

[9] = test system: HAS3; assay: HAS3 expression by qRT-PCR in HSVSMC; details: SMILR knockdown
Description: as §1

[10] = test system: SMILR; assay: RNA-FISH of SMILR transcripts in HSVSMC
Text: Custom RNA-FISH tiled probe sets were generated to all exons of […] FISH utilises “branch tree” technology. Briefly, a target specific probe set, containing 40 oligo probes, hybridises to the target mRNA as 20 oligo pairs. Each oligo pair forms a required platform for assembly of the signal amplification structure (tree) through a series of sequential hybridisation steps. Each fully assembled structure, covers a space of 40-50 nt of the target RNA, and has the capacity for 400-fold signal amplification. Therefore, a typical RNA probe set (containing 20 oligo pairs) has the capacity to generate 8,000-fold signal amplification. Due to this technology the company confirms single-molecule RNA sensitivity, thus each fluorescent signal corresponds to an individual lncRNA molecule. Control SNORD3 and UBC were used as housekeepers to determine spatial location of LncRNA2 (Panomics, Affymetrix). RNA-FISH was performed according to manufacturer's instructions (ViewRNATM cell FISH) with minor modifications for both cell and tissue experiments. For cellular analysis […] were grown on 16mm coverslips to 80% confluency, washed in PBS and fixed in 4% paraformaldehyde supplemented with 1% glacial acetic acid. Following detergent QS permeablisation and 1:6000 protease digest coverslips were incubated with a combination of UBC and LncRNA 2 probe sets or UBC. […]

Molecule	LncRNA 2 expression in the presence of IL1 and PDGF [1]	induction of SMILR expression in response to PDGF and IL1α [1]	decrease in SMILR expression compared to dsiControl ([2]; 25 nM dsiRNA, IL1α/PDGF 48 h) [%]	LncRNA 2 (SMILR) expression after dsiRNA transfection ([2]; IL1/PDGF, qRT-PCR)	VSMC proliferation reduced (EdU incorporation) ([3]; SMILR knock down with dsiRNA, IL1/PDGF 48 h, vs Si Control) [%]	SMC proliferation following stimulation with IL1/PDGF (EdU incorporation) ([3]; dsiRNA mediated knockdown of LncRNA 2)	effect on the interferon pathway (response genes OAS1 and IRF7) [4]	HAS2 mRNA levels [5]	HAS2 mRNA levels ([5]; listed as SMILR siRNA)	HAS2-AS1 lncRNA expression [6]	ZHX2 gene expression [7]	HAS1 expression [8]	HAS3 expression [9]	SMILR transcripts (RNA-FISH) [10]
Cn1cnc2c(F)c(Nc3ccc(Br)cc3Cl)c(C(=O)NOCCO)cc21 [AZD6244]	completely inhibited	prevented the induction	–	–	–	–	–	–	–	–	–	–	–	–
C[S+]([O-])c1ccc(-c2nc(-c3ccncc3)c(-c3ccc(F)cc3)[nH]2)cc1 (stereo not shown) [SB 203580]	completely inhibited	dose-dependent reduction	–	–	–	–	–	–	–	–	–	–	–	–
DsiRNA SMILR: Double stranded dicer substrate siRNA targeting LncRNA 2 (SMILR); probably sense SEQ ID NO: 1, antisense SEQ ID NO: 2 (sense CCAUAAUUUACAUGGAUGUU; antisense UUCCAAACAUCCAUGUAAAUUAUGGAA; listed as RNA, chemistry not fully specified)	–	–	75±24	significant decrease	56±15	inhibited	No effect	significantly inhibits	significantly altered	no change	no change	no effect	no effect	decrease
